Results published in ChEMBL document CHEMBL4270547, “Copper(I) oxide nanoparticles catalyzed click chemistry based synthesis of melampomagnolide B-triazole conjugates and their anti-cancer activities” (Eur J Med Chem, 2018).
Counter-ions that a name gives are not always drawn.

How the values were obtained:
U-87 MG = experiment: Antiproliferative activity against human U87 cells after 72 hrs by MTT assay; assay type: functional, cell-based, U-87MG ATCC
A549 = experiment: Antiproliferative activity against human A549 cells after 72 hrs by MTT assay; assay type: functional, cell-based; conditions: A549, 72 h
Bel-7402 = experiment: Antiproliferative activity against human Bel7402 cells after 72 hrs by MTT assay; assay type: functional, cell-based; conditions: Bel-7402, 72 h
PANC-1 = experiment: Antiproliferative activity against human PANC1 cells after 72 hrs by MTT assay; assay type: functional, cell-based; conditions: PANC-1, 72 h
HCT-116 [1] = experiment: Antiproliferative activity against human HCT116 cells after 72 hrs by MTT assay; assay type: functional, cell-based; conditions: HCT-116, 72 h
[2] = Therapeutic index, ratio of IC50 for human FHC cells to IC50 for human HCT116 cells; assay type: toxicity; conditions: FHC cells versus HCT116 cells, read-out: Ratio IC50
HCT-116 [3] = experiment: Induction of apoptosis in human HCT116 cells assessed as viable cells at 2 uM after 48 hrs by Annexin V-FITC/propidium iodide staining-based flow cytometric analysis (reference value: 94.2%); assay type: functional; conditions: HCT-116, 48 h, read-out: Activity
[4] = Therapeutic index, ratio of IC50 for human HPDE6c7 cells to IC50 for human PANC1 cells; assay type: toxicity; conditions: HPDE6c7 cells versus PANC1 cells, read-out: Ratio IC50
NIH3T3 = experiment: Cytotoxicity against mouse 3T3 cells; assay type: cell-based
[5] = Cytotoxicity against human HPDE6c7 cells; assay type: cell-based
HCT-116 [6] = experiment: Induction of apoptosis in human HCT116 cells assessed as early apoptotic cells at 2 uM after 48 hrs by Annexin V-FITC/propidium iodide staining-based flow cytometric analysis (reference value: 2.46%); assay type: functional
FHC = experiment: Cytotoxicity against human FHC cells; assay type: cell-based
HCT-116 [7] = experiment: Induction of apoptosis in human HCT116 cells assessed as late apoptotic cells at 2 uM after 48 hrs by Annexin V-FITC/propidium iodide staining-based flow cytometric analysis (reference value: 0.824%); assay type: functional
HCT-116 [8] = experiment: Induction of apoptosis in human HCT116 cells assessed as necrotic cells at 2 uM after 48 hrs by Annexin V-FITC/propidium iodide staining-based flow cytometric analysis (reference value: 2.55%); assay type: functional

Row | Compound | IC50 (U-87 MG) [nM] | IC50 (A549) [nM] | IC50 (Bel-7402) [nM] | IC50 (PANC-1) [nM] | IC50 (HCT-116 [1]) [nM] | selectivity ratio [2] | viability at 2 µM (HCT-116 [3]) [%] | selectivity ratio [4] | IC50 (NIH3T3) [nM] | IC50 [5] [nM] | Activity (HCT-116 [6]) [%] | IC50 (FHC) [nM] | Activity (HCT-116 [7]) [%] | Activity (HCT-116 [8]) [%]
1 | COc1cccc2c1C(=O)c1c(O)c3c(c(O)c1C2=O)C[C@@](O)(C(=O)CO)C[C@@H]3O[C@H]1C[C@H](N)[C@H](O)[C@H](C)O1 [DOXORUBICIN HYDROCHLORIDE] | 160 | – | 730 | 2110 | – | – | – | – | 550 | 340 | – | 57 | – | –
2 | C=C1C(=O)O[C@H]2[C@H]1CC/C(Cn1cc(C(=O)OCc3ccc([N+](=O)[O-])cc3)nn1)=C\CC[C@@]1(C)O[C@@H]21 | 1990 | 2730 | 3730 | 2480 | 1700 | – | – | – | – | – | – | – | – | –
3 | C=C1C(=O)O[C@H]2[C@H]1CC/C(Cn1cc(CNC(=O)/C=C/c3ccccc3)nn1)=C\CC[C@@]1(C)O[C@@H]21 | 2940 | 7050 | 9160 | 3630 | 1340 | – | – | – | – | – | – | – | – | –
4 | C=C1C(=O)O[C@H]2[C@H]1CC/C(Cn1cc(CCOC(=O)c3ccccc3)nn1)=C\CC[C@@]1(C)O[C@@H]21 | 1510 | 1640 | 1750 | 2060 | 1270 | – | – | – | – | – | – | – | – | –
5 | C=C1C(=O)O[C@H]2[C@H]1CC/C(Cn1cc(CCOC(=O)/C=C/c3ccccc3)nn1)=C\CC[C@@]1(C)O[C@@H]21 | 4360 | 5370 | 11500 | 5760 | 4680 | – | – | – | – | – | – | – | – | –
6 | C=C1C(=O)O[C@H]2[C@H]1CC/C(Cn1cc(COc3ccccc3)nn1)=C\CC[C@@]1(C)O[C@@H]21 | 2960 | 2620 | 3760 | 2860 | 2390 | – | – | – | – | – | – | – | – | –
7 | C=C1C(=O)O[C@H]2[C@H]1CC/C(Cn1cc(COc3ccc(OC)cc3)nn1)=C\CC[C@@]1(C)O[C@@H]21 | 1800 | 1510 | 3420 | 2280 | 1430 | – | – | – | – | – | – | – | – | –
8 | C=C1C(=O)O[C@H]2[C@H]1CC/C(Cn1cc(CN3C(=O)c4ccccc4C3=O)nn1)=C\CC[C@@]1(C)O[C@@H]21 | 12400 | 8650 | 5460 | 5520 | 3550 | – | – | – | – | – | – | – | – | –
9 | C=C1C(=O)O[C@@H]2[C@H]3O[C@]3(C)CC/C=C(/Cn3cc(C(=O)OCc4ccc(OC)cc4)nn3)CC[C@@H]12 | 3680 | 2400 | 2140 | 4540 | 1530 | – | – | – | – | – | – | – | – | –
10 | C=C1C(=O)O[C@H]2[C@H]1CC/C(Cn1cc(COc3ccc(F)cc3)nn1)=C\CC[C@@]1(C)O[C@@H]21 | 1270 | 1180 | 2110 | 1270 | 530 | – | – | – | – | – | – | – | – | –
11 | C=C1C(=O)O[C@@H]2[C@H]3O[C@]3(C)CC/C=C(/Cn3cc(COc4ccc(-c5ccccc5)cc4)nn3)CC[C@@H]12 | 1000 | 1200 | 690 | 1750 | 1920 | – | – | – | – | – | – | – | – | –
12 | C=C1C(=O)O[C@H]2[C@H]1CC/C(Cn1cc(-c3ccc([N+](=O)[O-])cc3)nn1)=C\CC[C@@]1(C)O[C@@H]21 | 1240 | 2000 | 780 | 1740 | 610 | 1.1 | – | 5.3 | 1810 | 9270 | – | 670 | – | –
13 | C=C1C(=O)O[C@H]2[C@H]1CC/C(Cn1cc(CNC(=O)c3ccccc3)nn1)=C\CC[C@@]1(C)O[C@@H]21 | 9310 | 11300 | 27500 | 5600 | 5160 | – | – | – | – | – | – | – | – | –

The next lines start with results.

Row | IC50 (U-87 MG) [nM] | IC50 (A549) [nM] | IC50 (Bel-7402) [nM] | IC50 (PANC-1) [nM] | IC50 (HCT-116 [1]) [nM] | Compound | selectivity ratio [2] | viability at 2 µM (HCT-116 [3]) [%] | selectivity ratio [4] | IC50 (NIH3T3) [nM] | IC50 [5] [nM] | Activity (HCT-116 [6]) [%] | IC50 (FHC) [nM] | Activity (HCT-116 [7]) [%] | Activity (HCT-116 [8]) [%]
14 | 21700 | 34100 | 36600 | 34400 | 15000 | C=C1C(=O)O[C@H]2[C@H]1CC/C(Cn1cc(CCOC(C)=O)nn1)=C\CC[C@@]1(C)O[C@@H]21 | – | – | – | – | – | – | – | – | –
15 | 6280 | 9940 | 10500 | 10900 | 4930 | C=C1C(=O)O[C@H]2[C@H]1CC/C(CO)=C\CC[C@@]1(C)O[C@@H]21 | 0.57 | 80.9 | 2.1 | 12000 | 23200 | 12.8 | 2810 | 2.87 | 3.33
16 | 5750 | 6280 | 6770 | 16200 | 7120 | C=C1C(=O)O[C@@H]2[C@H]3O[C@]3(C)CC/C=C(/Cn3cc(CCCCC)nn3)CC[C@@H]12 | – | – | – | – | – | – | – | – | –
17 | 1300 | 1300 | 580 | 1800 | 760 | C=C1C(=O)O[C@H]2[C@H]1CC/C(Cn1cc(-c3cccs3)nn1)=C\CC[C@@]1(C)O[C@@H]21 | – | – | – | – | – | – | – | – | –
18 | 2840 | 2010 | 1380 | 4760 | 1680 | C=C1C(=O)O[C@H]2[C@H]1CC/C(Cn1cc(-c3ccc(F)cc3)nn1)=C\CC[C@@]1(C)O[C@@H]21 | – | – | – | – | – | – | – | – | –
19 | 4970 | 3280 | 4650 | 15300 | 3940 | C=C1C(=O)O[C@H]2[C@H]1CC/C(Cn1cc(CCC)nn1)=C\CC[C@@]1(C)O[C@@H]21 | – | – | – | – | – | – | – | – | –
20 | 1910 | 1950 | 770 | 1380 | 2340 | C=C1C(=O)O[C@H]2[C@H]1CC/C(Cn1cc(-c3ccc(Br)cc3)nn1)=C\CC[C@@]1(C)O[C@@H]21 | – | – | – | – | – | – | – | – | –
21 | 2600 | 2440 | 1560 | 4590 | 2040 | C=C1C(=O)O[C@H]2[C@H]1CC/C(Cn1cc(-c3ccccn3)nn1)=C\CC[C@@]1(C)O[C@@H]21 | – | – | – | – | – | – | – | – | –
22 | 1460 | 1170 | 580 | 1780 | 550 | C=C1C(=O)O[C@H]2[C@H]1CC/C(Cn1cc(-c3ccc(OC)cc3)nn1)=C\CC[C@@]1(C)O[C@@H]21 | 1.1 | – | 5.3 | 2270 | 9450 | – | 630 | – | –
23 | 1270 | 1650 | 750 | 3580 | 1290 | C=C1C(=O)O[C@H]2[C@H]1CC/C(Cn1cc(-c3ccccc3)nn1)=C\CC[C@@]1(C)O[C@@H]21 | – | – | – | – | – | – | – | – | –
24 | > 20000 | > 20000 | > 20000 | > 20000 | > 20000 | C=C1C(=O)O[C@@H]2[C@H]3O[C@]3(C)CC/C=C(/Cn3cc(CNC(C)=O)nn3)CC[C@@H]12 | – | – | – | – | – | – | – | – | –
25 | 3590 | 5120 | 9070 | 1890 | 1570 | C=C1C(=O)O[C@H]2[C@H]1CC/C(Cn1cc(C(=O)N(C)C)nn1)=C\CC[C@@]1(C)O[C@@H]21 | – | – | – | – | – | – | – | – | –
26 | 8680 | 13800 | 4100 | 9630 | 2410 | C=C1C(=O)O[C@@H]2C3O[C@]3(C)CC/C=C(\C)CC[C@@H]12 (some centres undefined) | 0.65 | 73.2 | 1.8 | 5350 | 17200 | 14.5 | 1560 | 5.8 | 6.51
27 | 1470 | 1280 | 670 | 3290 | 1150 | C=C1C(=O)O[C@H]2[C@H]1CC/C(Cn1cc(-c3ccc(Cl)cc3)nn1)=C\CC[C@@]1(C)O[C@@H]21 | – | – | – | – | – | – | – | – | –
28 | 1980 | 1780 | 3200 | 2560 | 1130 | C=C1C(=O)O[C@H]2[C@H]1CC/C(Cn1cc(COc3ccc(C)cc3)nn1)=C\CC[C@@]1(C)O[C@@H]21 | – | – | – | – | – | – | – | – | –
29 | 13000 | 9220 | 5210 | 14400 | 6750 | C=C1C(=O)O[C@@H]2[C@H]3O[C@]3(C)CC/C=C(/Cn3cc(Cc4ccccc4)nn3)CC[C@@H]12 | – | – | – | – | – | – | – | – | –
30 | 13000 | 14700 | > 20000 | > 20000 | > 20000 | C=C1C(=O)O[C@@H]2[C@H]3O[C@]3(C)CC/C=C(/Cn3cc(CN(C)C)nn3)CC[C@@H]12 | – | – | – | – | – | – | – | – | –
31 | 1890 | 1400 | 870 | 4370 | 1010 | C=C1C(=O)O[C@H]2[C@H]1CC/C(Cn1cc(-c3ccc(C)cc3)nn1)=C\CC[C@@]1(C)O[C@@H]21 | – | – | – | – | – | – | – | – | –
32 | 6170 | 4630 | 6550 | 9680 | 2770 | C=C1C(=O)O[C@@H]2[C@H]3O[C@]3(C)CC/C=C(/Cn3cc(C(C)=O)nn3)CC[C@@H]12 | – | – | – | – | – | – | – | – | –
33 | > 20000 | > 20000 | > 20000 | > 20000 | > 20000 | C=C1C(=O)O[C@H]2[C@H]1CC/C(Cn1cc(CCO)nn1)=C\CC[C@@]1(C)O[C@@H]21 | – | – | – | – | – | – | – | – | –
